We go through 18 molecules from patent US20160185797A1, “ALKYNYL ALCOHOLS AND METHODS OF USE” (Genentech, Inc., priority 2013, published 2016).

Test [1] has as its target T1, nuclear factor-kappa B (NF-kB)-inducing kinase (NIK) (Homo sapiens, UniProt Q99558).
T1 construct: made in house; host or cells: baculovirus-infected insect cells
Briefly: NIK enzyme inhibition assay (Transcreener ADP fluorescence polarization, NIK ADP-FP). The test is classed as biochemical. Background: Fluorescence polarisation rises when a labelled molecule tumbles more slowly, as on binding a larger partner.

For test [2], the system named is p52 (NF-kB2) nuclear translocation in HeLa cells. Briefly: p52 (NF-kB2) nuclear translocation assay in HeLa cells, anti-lymphotoxin beta receptor antibody stimulated (non-classical NF-kB signaling), high content imaging. The test is classed as cell-based. The following applies: Homo sapiens, 100 ng/mL anti-lymphotoxin beta receptor antibody for 5 hours, read-out: p52 HeLa Transloc Assay (IC50). In short, it runs like this: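 HeLa cells in 10% FBS medium were treated with compound (0.2% DMSO final) and stimulated with 100 ng/mL anti-lymphotoxin beta receptor antibody for 5 h. Fixed cells were immunostained for p52 and imaged with DRAQ5 nuclear stain. Translocation is the nuclear to cytoplasmic intensity ratio, […].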

Test [3] relates to REL-A (p65) nuclear translocation in HeLa cells. Put plainly: REL-A (p65) nuclear translocation assay in HeLa cells, TNF-α stimulated (classical NF-kB signaling), high content imaging. The test is classed as cell-based. The conditions noted are these: Homo sapiens, HeLa, compound 4.5 h, then 10 ng/mL TNF-α for 30 minutes, read-out: REL-A HeLa Transloc Assay (IC50). In short, it runs like this:
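HeLa cells in medium with 10% fetal bovine serum were exposed to compounds (0.2% DMSO final) for 4.5 hours, then stimulated with 10 ng/mL TNF-α for 30 minutes. After fixation in 4% paraformaldehyde and permeabilization with 0.1% Triton X-100, cells were stained with 400 ng/mL anti-REL-A (p65) antibody, an Alexa488 secondary and DRAQ5. Opera imaging quantified the nuclear-to-cytoplasmic signal ratio to give IC50.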

T1 sequence (Q99558 whole entry): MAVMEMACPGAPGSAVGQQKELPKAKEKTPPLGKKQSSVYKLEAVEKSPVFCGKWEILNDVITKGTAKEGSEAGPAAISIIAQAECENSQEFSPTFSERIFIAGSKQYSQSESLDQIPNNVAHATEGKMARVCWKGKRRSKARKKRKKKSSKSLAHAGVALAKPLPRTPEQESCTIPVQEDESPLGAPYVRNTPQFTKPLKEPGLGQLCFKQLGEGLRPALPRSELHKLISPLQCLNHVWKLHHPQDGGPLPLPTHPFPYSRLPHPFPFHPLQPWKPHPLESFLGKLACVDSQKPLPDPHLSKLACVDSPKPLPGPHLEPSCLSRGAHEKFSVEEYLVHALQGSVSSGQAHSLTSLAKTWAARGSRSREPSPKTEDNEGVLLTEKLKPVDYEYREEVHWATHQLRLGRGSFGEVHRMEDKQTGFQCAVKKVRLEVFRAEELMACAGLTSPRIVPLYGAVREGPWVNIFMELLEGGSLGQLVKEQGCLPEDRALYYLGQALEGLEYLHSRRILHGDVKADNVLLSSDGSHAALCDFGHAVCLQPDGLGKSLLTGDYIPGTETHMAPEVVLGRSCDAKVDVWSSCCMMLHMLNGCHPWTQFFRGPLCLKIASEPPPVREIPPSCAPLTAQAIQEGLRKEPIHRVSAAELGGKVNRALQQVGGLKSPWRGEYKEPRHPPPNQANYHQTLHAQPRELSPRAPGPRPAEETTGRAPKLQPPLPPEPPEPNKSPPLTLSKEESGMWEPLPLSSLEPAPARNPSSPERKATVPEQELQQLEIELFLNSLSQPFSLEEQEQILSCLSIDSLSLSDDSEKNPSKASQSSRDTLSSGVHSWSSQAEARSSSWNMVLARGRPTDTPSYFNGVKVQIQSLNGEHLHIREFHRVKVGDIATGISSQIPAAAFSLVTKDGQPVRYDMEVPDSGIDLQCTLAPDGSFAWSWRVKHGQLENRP

The Ki is the dissociation constant of the complex between target and ligand, obtained from inhibition or displacement. Read a high Ki as weaker binding. As a reminder, the IC50 is the midpoint of a concentration-inhibition curve. For the molecule `CN1CC[C@@](O)(C#Cc2cccc(-c3nc(C(N)=O)cc4c3cnn4C)c2)C1=O` [Example 74, 4-[3-[2-[(3R)-3-hydroxy-1-methyl-2-oxo-pyrrolidin-3-yl]ethynyl]phenyl]-1-methyl-pyrazolo[4,3-c]pyridine-6-carboxamide], the Ki in test [1] stood at 0.53 nM. The IC50 in test [2] is 60.2 nM; in test [3], at least 20000 nM.

`Cc1cnc2c(-c3cccc(C#C[C@]4(O)CCN(C)C4=O)c3)nc(C(N)=O)cn12` [Example 75, 8-[3-[2-[(3R)-3-hydroxy-1-methyl-2-oxo-pyrrolidin-3-yl]ethynyl]phenyl]-3-methyl-imidazo[1,2-a]pyrazine-6-carboxamide] showed a Ki in test [1] of 0.38 nM. The IC50 in test [2] was 66.8 nM; in test [3] it was at least 20000 nM.

Regarding `Cc1cn2cc(C(N)=O)nc(-c3cccc(C#C[C@]4(O)CCN(C)C4=O)c3)c2n1` [Example 76, 8-[3-[2-[(3R)-3-hydroxy-1-methyl-2-oxo-pyrrolidin-3-yl]ethynyl]phenyl]-2-methyl-imidazo[1,2-a] pyrazine-6-carboxamide], the affinity in test [1] corresponds to a Ki of 0.86 nM. Moreover, the results for the IC50 in test [2] and in test [3] were 101 nM and at least 20000 nM, respectively.

In the case of `CN1CC[C@@](O)(C#Cc2cc3c(c(-c4cccc(C(N)=O)n4)c2)OCC3)C1=O` [Example 77, 6-[5-[2-[(3R)-3-hydroxy-1-methyl-2-oxo-pyrrolidin-3-yl]ethynyl]-2,3-dihydrobenzofuran-7-yl] pyridine-2-carboxamide], the Ki in test [1] amounted to 0.99 nM. Further, the figures for the IC50 in test [2] and in test [3] were 247 nM and at least 20000 nM, respectively.

As to `CN1CC[C@@](O)(C#Cc2cccc(-c3cc4c(Cl)c[nH]c4c(C(N)=O)n3)c2)C1=O` [Example 78, 3-chloro-5-[3-[2-[(3R)-3-hydroxy-1-methyl-2-oxo-pyrrolidin-3-yl]ethynyl]phenyl]-1H-pyrrolo[2,3-c]pyridine-7-carboxamide], the Ki in test [1] is 0.1 nM. Moreover, the IC50 in test [2] is 8.3 nM; in test [3], 15700 nM.

`CN1CC[C@@](O)(C#Cc2cccc(-c3nc(C(N)=O)c(NC4COC4)cc3F)c2)C1=O` [Example 79, 5-fluoro-6-[3-[2-[(3R)-3-hydroxy-1-methyl-2-oxo-pyrrolidin-3-yl]ethynyl]phenyl]-3-(oxetan-3-ylamino)pyridine-2-carboxamide] displayed a Ki in test [1] of 0.05 nM. For the same molecule, the IC50 in test [2] was 9.86 nM; in test [3] it was at least 20000 nM.

`COCCNc1cc(F)c(-c2cccc(C#C[C@]3(O)CCN(C)C3=O)c2)nc1C(N)=O` [Example 80, 5-fluoro-6-[3-[2-[(3R)-3-hydroxy-1-methyl-2-oxo-pyrrolidin-3-yl]ethynyl]phenyl]-3-(2-methoxyethylamino) pyridine-2-carboxamide] came in with a Ki in test [1] of 0.05 nM. Moreover, the IC50 in test [2] is 4.65 nM; in test [3], at least 20000 nM.

In test [1], `CN1CC[C@@](O)(C#Cc2cccc(-c3nc(C(N)=O)c(NC[C@@H]4CCO4)cc3F)c2)C1=O` [Example 81, 5-fluoro-6-[3-[2-[(3R)-3-hydroxy-1-methyl-2-oxo-pyrrolidin-3-yl]ethynyl]phenyl]-3-[[(2S)-oxetan-2-yl]methylamino] pyridine-2-carboxamide] had a Ki of 0.05 nM. Besides, the results for the IC50 in test [2] and in test [3] were 50.8 nM and at least 2000 nM, respectively.

For the molecule `CN1CC[C@@](O)(C#Cc2cccc(-c3nc(C(N)=O)c(NC[C@H]4CCO4)cc3F)c2)C1=O` [Example 82, 5-fluoro-6-[3-[2-[(3R)-3-hydroxy-1-methyl-2-oxo-pyrrolidin-3-yl]ethynyl]phenyl]-3-[[(2R)-oxetan-2-yl]methylamino] pyridine-2-carboxamide], the Ki in test [1] is 0.33 nM. For the same molecule, the IC50 was 95.5 nM in test [2] and at least 2000 nM in test [3].

In test [1], `CN1CC[C@@](O)(C#Cc2cccc(-c3nc(C(N)=O)c(NCC(F)(F)F)cc3F)c2)C1=O` [Example 83, 5-fluoro-6-[3-[2-[(3R)-3-hydroxy-1-methyl-2-oxo-pyrrolidin-3-yl]ethynyl]phenyl]-3-(2,2,2-trifluoroethylamino) pyridine-2-carboxamide] showed a Ki of 0.15 nM. In addition, the IC50 came to 11 nM in test [2] and 1000 nM in test [3].

On to `CN1CC[C@@](O)(C#Cc2ccc(F)c(-c3ccc(N)c(C(N)=O)n3)c2)C1=O` [Example 84, 3-amino-6-[2-fluoro-5-[2-[(3R)-3-hydroxy-1-methyl-2-oxo-pyrrolidin-3-yl]ethynyl]phenyl] pyridine-2-carboxamide], for which the Ki in test [1] is 0.05 nM. Also, the IC50 worked out at 14.2 nM in test [2] and 1000 nM in test [3].

Take `CN1CC[C@@](O)(C#Cc2ccc(F)c(-c3ccc(NC4COC4)c(C(N)=O)n3)c2)C1=O` [Example 85, 6-[2-fluoro-5-[2-[(3R)-3-hydroxy-1-methyl-2-oxo-pyrrolidin-3-yl]ethynyl]phenyl]-3-(oxetan-3-ylamino)pyridine-2-carboxamide]: the affinity in test [1], expressed as Ki, was 0.05 nM. For the same molecule, the IC50 in test [2] was found to be 5.88 nM; in test [3] it was 6320 nM.

In test [1], `COCCNc1ccc(-c2cc(C#C[C@]3(O)CCN(C)C3=O)ccc2F)nc1C(N)=O` [Example 86, 6-[2-fluoro-5-[2-[(3R)-3-hydroxy-1-methyl-2-oxo-pyrrolidin-3-yl]ethynyl]phenyl]-3-(2-methoxyethylamino) pyridine-2-carboxamide] yielded a Ki of 0.1 nM. In addition, the IC50 in test [2] was 6.27 nM; in test [3], at least 20000 nM.

For the molecule `CN1CC[C@@](O)(C#Cc2cccc(-c3ncc(NC4CC4)c(C(N)=O)n3)c2)C1=O` [Example 87, 5-(cyclopropylamino)-2-[3-[2-[(3R)-3-hydroxy-1-methyl-2-oxo-pyrrolidin-3-yl]ethynyl]phenyl] pyrimidine-4-carboxamide], the Ki in test [1] came out at 0.14 nM. The values for the IC50 in test [2] and in test [3] were 4 nM and 1000 nM, respectively.

In test [1], `CN1CC[C@@](O)(C#Cc2cccc(-c3ncc(NC4COC4)c(C(N)=O)n3)c2)C1=O` [Example 88, 2-[3-[2-[(3R)-3-hydroxy-1-methyl-2-oxo-pyrrolidin-3-yl]ethynyl]phenyl]-5-(oxetan-3-ylamino) pyrimidine-4-carboxamide] came in with a Ki of 0.05 nM. The values for the IC50 in test [2] and in test [3] were 2.12 nM and at least 20000 nM, respectively.

In test [1], `COCCNc1cnc(-c2cccc(C#C[C@]3(O)CCN(C)C3=O)c2)nc1C(N)=O` [Example 89, 2-[3-[2-[(3R)-3-hydroxy-1-methyl-2-oxo-pyrrolidin-3-yl]ethynyl]phenyl]-5-(2-methoxyethylamino) pyrimidine-4-carboxamide] registered a Ki of 0.05 nM. Besides, the IC50 in test [2] came to 32.4 nM; in test [3], 1000 nM.

Regarding `CN1CC[C@@](O)(C#Cc2ccc(F)c(-c3cccc(C(N)=O)n3)c2)C1=O` [Example 92, 6-[2-fluoro-5-[2-[(3R)-3-hydroxy-1-methyl-2-oxo-pyrrolidin-3-yl]ethynyl]phenyl]pyridine-2-carboxamide], in test [1], the Ki came to 0.39 nM. Also, the IC50 was 133 nM in test [2] and at least 20000 nM in test [3].

For the molecule `COc1ccc2nc(-c3cccc(C#C[C@]4(O)CCN(C)C4=O)c3)nc(C(N)=O)c2c1` [Example 93, 2-[3-[2-[(3R)-3-hydroxy-1-methyl-2-oxo-pyrrolidin-3-yl]ethynyl]phenyl]-6-methoxy-quinazoline-4-carboxamide], in test [1], affinity was put at a Ki of 0.15 nM. Besides, the IC50 in test [2] was determined as 21 nM; in test [3] it was 6320 nM.
